Assay results taken from US20090181898A1, “ABUSE-RESISTANT A[…]” (SHIRE LLC, priority 2002, published 2009).
Marks after values point to notes of the source that are not given here.

Legend:
rats [1] = assay: Locomotor activity after intranasal administration with and without CMC; format: in vivo, Sprague-Dawley rats; settings: rats, intranasal 1.0 mg/kg, 1 h
Source text: The CMC drug mixtures were suspended thoroughly before each dose was delivered.

anesthetized dog = assay: Cardiovascular effects following intravenous injection in the anesthetized dog
[2] = Intranasal bioavailability (LC/MS/MS); settings: rat, intranasal, 3 mg/kg
rats [3] = assay: Locomotor activity after intravenous administration; format: in vivo, Sprague-Dawley rats; settings: rat, 1.0 mg/kg
stimulant abusers = assay: Abuse liability of intravenous L-lysine-d-amphetamine in stimulant abusers; settings: d-amphetamine 20 mg
[4] = Oral bioavailability at escalating doses (LC/MS/MS); settings: rat; for AUC0-8 of d-amphetamine / AUCinf of d-amphetamine / F of d-amphetamine / Tmax of d-amphetamine / Cmax of d-amphetamine / AUCinf alt. calc. of d-amphetamine: oral; for Cmax of d-amphetamine: LC/MS/MS; for AUCinf alt. calc. of d-amphetamine: WinNonlin, in ng·h/mL
rats [5] = assay: Horizontal locomotor activity after oral administration; format: in vivo, Sprague-Dawley rats; set-up: Time of Peak (Counts per 0.2 h): unit not given here; settings: rats, oral gavage 6 mg/kg
[6] = IV, L-lysine-d-amphetamine 50 mg

d-amphetamine
Total Activity Counts (1 h) (rats [1]): 858
Total Activity Counts Above Baseline (rats [1]): 686
DAP % Change (anesthetized dog; iv 0.202 mg/kg, Time 0): 0%
LVP % Change (anesthetized dog; iv 0.202 mg/kg, Time 0): 0%
MAP % Change (anesthetized dog; iv 0.202 mg/kg, Time 0): 0%
MAP mean arterial pressure (anesthetized dog; iv 0.202 mg/kg, Time 0): 84 mmHg
SAP % Change (anesthetized dog; iv 0.202 mg/kg, Time 0): 0%
SAP systolic arterial pressure (anesthetized dog; iv 0.202 mg/kg, Time 0): 111 mmHg
DAP % Change (anesthetized dog; iv 0.202 mg/kg, Time 5): 117%
LVP % Change (anesthetized dog; iv 0.202 mg/kg, Time 5): 107%
MAP % Change (anesthetized dog; iv 0.202 mg/kg, Time 5): 109%
MAP mean arterial pressure (anesthetized dog; iv 0.202 mg/kg, Time 5): 176 mmHg
SAP % Change (anesthetized dog; iv 0.202 mg/kg, Time 5): 97%
SAP systolic arterial pressure (anesthetized dog; iv 0.202 mg/kg, Time 5): 218 mmHg
DAP % Change (anesthetized dog; iv 0.202 mg/kg, Time 15): 45%
LVP % Change (anesthetized dog; iv 0.202 mg/kg, Time 15): 52%
MAP % Change (anesthetized dog; iv 0.202 mg/kg, Time 15): 49%
MAP mean arterial pressure (anesthetized dog; iv 0.202 mg/kg, Time 15): 125 mmHg
SAP % Change (anesthetized dog; iv 0.202 mg/kg, Time 15): 52%
SAP systolic arterial pressure (anesthetized dog; iv 0.202 mg/kg, Time 15): 168 mmHg
DAP % Change (anesthetized dog; iv 0.202 mg/kg, Time 25): 30%
LVP % Change (anesthetized dog; iv 0.202 mg/kg, Time 25): 37%
MAP % Change (anesthetized dog; iv 0.202 mg/kg, Time 25): 31%
MAP mean arterial pressure (anesthetized dog; iv 0.202 mg/kg, Time 25): 110 mmHg
SAP % Change (anesthetized dog; iv 0.202 mg/kg, Time 25): 34%
SAP systolic arterial pressure (anesthetized dog; iv 0.202 mg/kg, Time 25): 148 mmHg
DAP % Change (anesthetized dog; iv 0.202 mg/kg, Time 30): 20%
LVP % Change (anesthetized dog; iv 0.202 mg/kg, Time 30): 30%
MAP % Change (anesthetized dog; iv 0.202 mg/kg, Time 30): 23%
MAP mean arterial pressure (anesthetized dog; iv 0.202 mg/kg, Time 30): 103 mmHg
SAP % Change (anesthetized dog; iv 0.202 mg/kg, Time 30): 26%
SAP systolic arterial pressure (anesthetized dog; iv 0.202 mg/kg, Time 30): 140 mmHg
DAP % Change (anesthetized dog; iv 0.404 mg/kg, Time 0): 0%
LVP % Change (anesthetized dog; iv 0.404 mg/kg, Time 0): 0%
MAP % Change (anesthetized dog; iv 0.404 mg/kg, Time 0): 0%
MAP mean arterial pressure (anesthetized dog; iv 0.404 mg/kg, Time 0): 101 mmHg
SAP % Change (anesthetized dog; iv 0.404 mg/kg, Time 0): 0%
SAP systolic arterial pressure (anesthetized dog; iv 0.404 mg/kg, Time 0): 139 mmHg
DAP % Change (anesthetized dog; iv 0.404 mg/kg, Time 5): 88%
LVP % Change (anesthetized dog; iv 0.404 mg/kg, Time 5): 79%
MAP % Change (anesthetized dog; iv 0.404 mg/kg, Time 5): 85%
MAP mean arterial pressure (anesthetized dog; iv 0.404 mg/kg, Time 5): 187 mmHg
SAP % Change (anesthetized dog; iv 0.404 mg/kg, Time 5): 73%
SAP systolic arterial pressure (anesthetized dog; iv 0.404 mg/kg, Time 5): 240 mmHg
DAP % Change (anesthetized dog; iv 0.404 mg/kg, Time 15): 44%
LVP % Change (anesthetized dog; iv 0.404 mg/kg, Time 15): 43%
MAP % Change (anesthetized dog; iv 0.404 mg/kg, Time 15): 43%
MAP mean arterial pressure (anesthetized dog; iv 0.404 mg/kg, Time 15): 145 mmHg
SAP % Change (anesthetized dog; iv 0.404 mg/kg, Time 15): 39%
SAP systolic arterial pressure (anesthetized dog; iv 0.404 mg/kg, Time 15): 193 mmHg
DAP % Change (anesthetized dog; iv 0.404 mg/kg, Time 25): 17%
LVP % Change (anesthetized dog; iv 0.404 mg/kg, Time 25): 26%
MAP % Change (anesthetized dog; iv 0.404 mg/kg, Time 25): 20%
MAP mean arterial pressure (anesthetized dog; iv 0.404 mg/kg, Time 25): 122 mmHg
SAP % Change (anesthetized dog; iv 0.404 mg/kg, Time 25): 19%
SAP systolic arterial pressure (anesthetized dog; iv 0.404 mg/kg, Time 25): 166 mmHg
DAP % Change (anesthetized dog; iv 0.404 mg/kg, Time 30): 11%
LVP % Change (anesthetized dog; iv 0.404 mg/kg, Time 30): 22%
MAP % Change (anesthetized dog; iv 0.404 mg/kg, Time 30): 16%
MAP mean arterial pressure (anesthetized dog; iv 0.404 mg/kg, Time 30): 117 mmHg
SAP % Change (anesthetized dog; iv 0.404 mg/kg, Time 30): 16%
SAP systolic arterial pressure (anesthetized dog; iv 0.404 mg/kg, Time 30): 160 mmHg
DAP % Change (anesthetized dog; iv 2.02 mg/kg, Time 0): 0%
LVP % Change (anesthetized dog; iv 2.02 mg/kg, Time 0): 0%
MAP % Change (anesthetized dog; iv 2.02 mg/kg, Time 0): 0%
MAP mean arterial pressure (anesthetized dog; iv 2.02 mg/kg, Time 0): 115 mmHg
SAP % Change (anesthetized dog; iv 2.02 mg/kg, Time 0): 0%
SAP systolic arterial pressure (anesthetized dog; iv 2.02 mg/kg, Time 0): 158 mmHg
DAP % Change (anesthetized dog; iv 2.02 mg/kg, Time 5): 48%
LVP % Change (anesthetized dog; iv 2.02 mg/kg, Time 5): 40%
MAP % Change (anesthetized dog; iv 2.02 mg/kg, Time 5): 47%
MAP mean arterial pressure (anesthetized dog; iv 2.02 mg/kg, Time 5): 169 mmHg
SAP % Change (anesthetized dog; iv 2.02 mg/kg, Time 5): 44%
SAP systolic arterial pressure (anesthetized dog; iv 2.02 mg/kg, Time 5): 228 mmHg
DAP % Change (anesthetized dog; iv 2.02 mg/kg, Time 15): 23%
LVP % Change (anesthetized dog; iv 2.02 mg/kg, Time 15): 24%
MAP % Change (anesthetized dog; iv 2.02 mg/kg, Time 15): 23%
MAP mean arterial pressure (anesthetized dog; iv 2.02 mg/kg, Time 15): 142 mmHg
SAP % Change (anesthetized dog; iv 2.02 mg/kg, Time 15): 24%
SAP systolic arterial pressure (anesthetized dog; iv 2.02 mg/kg, Time 15): 196 mmHg
DAP % Change (anesthetized dog; iv 2.02 mg/kg, Time 25): 17%
LVP % Change (anesthetized dog; iv 2.02 mg/kg, Time 25): 19%
MAP % Change (anesthetized dog; iv 2.02 mg/kg, Time 25): 17%
MAP mean arterial pressure (anesthetized dog; iv 2.02 mg/kg, Time 25): 135 mmHg
SAP % Change (anesthetized dog; iv 2.02 mg/kg, Time 25): 20%
SAP systolic arterial pressure (anesthetized dog; iv 2.02 mg/kg, Time 25): 189 mmHg
DAP % Change (anesthetized dog; iv 2.02 mg/kg, Time 30): 13%
LVP % Change (anesthetized dog; iv 2.02 mg/kg, Time 30): 16%
MAP % Change (anesthetized dog; iv 2.02 mg/kg, Time 30): 12%
MAP mean arterial pressure (anesthetized dog; iv 2.02 mg/kg, Time 30): 129 mmHg
SAP % Change (anesthetized dog; iv 2.02 mg/kg, Time 30): 16%
SAP systolic arterial pressure (anesthetized dog; iv 2.02 mg/kg, Time 30): 183 mmHg
AUC0-1 of d-amphetamine [2]: 1032 ng·h/mL
AUCinf of d-amphetamine [2]: 7291 ng·h/mL
Cmax of d-amphetamine ([2]; LC/MS/MS): 1962.9 ng/mL
AUCinf alt. calc. of d-amphetamine ([2]; in ng·h/mL): 1,267
Total Activity Counts (3 h) (rats [3]): 1659
Activity above baseline, Percent Amp (rats [3]; 3 h): 100%
Total Activity Counts Above Baseline (rats [3]; 3 h): 1355
Time of mean peak plasma level of d-amphetamine (stimulant abusers; IV): 5 min
Time of mean peak responses (stimulant abusers; IV): 15 min
Mean maximum response on Subject Liking VAS vs placebo (stimulant abusers; [6]): significantly greater than placebo
Subjects (of 9) who would take the treatment again (stimulant abusers; [6]): Six
Mean peak plasma level of d-amphetamine (stimulant abusers; stimulant abusers, IV over 2 minutes, L-lysine-d-amphetamine 50 mg): 77.7 ng/mL
AUC (0-1.5) of d-amphetamine ([4]; in vivo, po, 60 mg/kg): 14,281** ng · h/mL
AUC0-8 of d-amphetamine ([4]; 3 mg/kg): 885 ng·h/mL
AUCinf of d-amphetamine ([4]; 3 mg/kg): 921 ng·h/mL
F of d-amphetamine ([4]; 3 mg/kg): 84%
Tmax of d-amphetamine ([4]; 3 mg/kg): 90 min
Cmax of d-amphetamine ([4]; 3 mg/kg): 217.2 ng/mL
AUCinf alt. calc. of d-amphetamine ([4]; 3 mg/kg): 1,059
AUC0-8 of d-amphetamine ([4]; 6 mg/kg): 1,319 ng · h/mL
AUCinf of d-amphetamine ([4]; 6 mg/kg): 1,362 ng · h/mL
F of d-amphetamine ([4]; 6 mg/kg): 62%
Tmax of d-amphetamine ([4]; 6 mg/kg): 15 min
Cmax of d-amphetamine ([4]; 6 mg/kg): 815.3 ng/mL
AUCinf alt. calc. of d-amphetamine ([4]; 6 mg/kg): 1429
AUC0-8 of d-amphetamine ([4]; 12 mg/kg): 4,252 ng · h/mL
AUCinf of d-amphetamine ([4]; 12 mg/kg): 4,428 ng · h/mL
F of d-amphetamine ([4]; 12 mg/kg): 101%
Tmax of d-amphetamine ([4]; 12 mg/kg): 15 min
Cmax of d-amphetamine ([4]; 12 mg/kg): 1,533.1 ng/mL
AUCinf alt. calc. of d-amphetamine ([4]; 12 mg/kg): 4,636
AUCinf of d-amphetamine ([4]; 60 mg/kg): 48,707 ng · h/mL
F of d-amphetamine ([4]; 60 mg/kg): 223%
Tmax of d-amphetamine ([4]; 60 mg/kg): 60 min
Cmax of d-amphetamine ([4]; 60 mg/kg): 13,735 ng/mL
AUCinf alt. calc. of d-amphetamine ([4]; 60 mg/kg): 48,707
Tmax of d-amphetamine ([4]; […]): 30 min
Peak of activity (Counts per 0.2 h) (rats [5]; 5 h experiment): 291 Counts per 0.2 h
Time of Last Count Above 200 per 0.2 h (rats [5]; 5 h experiment): 2.6 h
Time of Peak (Counts per 0.2 h) (rats [5]; 5 h experiment): 0.6
Total Activity Counts (rats [5]; 5 h experiment): 515
Total Activity Counts Above Baseline (rats [5]; 5 h experiment): 0
Peak of activity (Counts per 0.2 h) (rats [5]; 12 h experiment): 223 Counts per 0.2 h
Time of Last Count Above 200 per 0.2 h (rats [5]; 12 h experiment): 6.4 h
Time of Peak (Counts per 0.2 h) (rats [5]; 12 h experiment): 0.6
Total Activity Counts (rats [5]; 12 h experiment): 6622
Total Activity Counts Above Baseline (rats [5]; 12 h experiment): 5686
